Results published in US20260250318A1, “COMPOSITIONS AND METHODS FOR CROSSING THE BLOOD BRAIN BARRIER” (VOYAGER THERAPEUTICS, INC., priority 2022, published 2026).

tested on: brain; assay: Matured TTM-001 and TTM-002 variants, NGS enrichment in mouse brain; assay type: in vivo, mice; details: NGS fold-enrichment, brain of mice, relative to AAV9 control

In order of falling “Fold Enrichment relative to AAV9, Brain (Mouse)” value:
1. KTINGSGSPHSKAPGLQT  144.610 fold
2. KTENVSGSPHSKAQNQQT  108.591 fold
3. KTVNGSGSPHSKAPNQHT  51.008 fold

same assay, conditions: NGS fold-enrichment, mouse brain, relative to AAV9 control

In order of rising “Fold Enrichment relative to AAV9, Brain (Mouse)” value:
1. KTINGNDSPHKSVQNHQT  7.920 fold
2. KAIIGHESPHKSGQNQQT  8.530 fold
3. KTEVGHDSPHKSGQNQQT  13.125 fold
4. KAINGHDSPHKSGQSPQT  14.195 fold
5. KTINGNGSPHSKAQNHQA  36.754 fold
6. KTVNGSGSPHSKAPNQHT  51.008 fold
7. KTENVSGSPHSKAQNQQT  108.591 fold

tested on: brains, heart, liver, muscle, and DRG of the NHPs; assay: Maturation of TTM-001 and TTM-002 capsids, NGS enrichment in NHP tissues; assay type: in vivo; details: NGS fold-enrichment of RNA, NHP brain, relative to AAV9 control
How it was run: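 Variants carry mutations within and flanking the loop IV peptide insert: positions 450–466 were triplet-randomized, while positions 449–466 received low-frequency point mutations. The combined pool went into two NHPs, and each peptide was scored by NGS enrichment ratio against AAV9.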

In order of rising “Fold Enrichment relative to AAV9, Brain (NHP)” value:
1. KAINGHDSPHKSGQSPQT  75.734 fold
2. KTINGNGSPHSKAQNHQA  88.274 fold
3. KTENVSGSPHSKAQNQQT  88.506 fold
4. KAIIGHESPHKSGQNQQT  88.563 fold
5. KTEVGHDSPHKSGQNQQT  112.457 fold
6. KTVNGSGSPHSKAPNQHT  117.207 fold
7. KTINGNDSPHKSVQNHQT  120.002 fold

same assay, conditions: NGS fold-enrichment, DRG of NHPs, relative to AAV9 control

In order of rising “Fold Enrichment relative to AAV9, DRG (NHP)” value:
1. KTVNGSGSPHSKAPNQHT  0.000 fold
2. KTENVSGSPHSKAQNQQT  0.000 fold
3. KTINGSGSPHSKAPGLQT  0.007 fold

same assay, conditions: NGS fold-enrichment, NHP DRG, relative to AAV9 control

In order of rising “Fold Enrichment relative to AAV9, DRG (NHP)” value:
1. KTINGNGSPHSKAQNHQA  0.000 fold
2. KTVNGSGSPHSKAPNQHT  0.000 fold
3. KTEVGHDSPHKSGQNQQT  0.000 fold
4. KAIIGHESPHKSGQNQQT  0.000 fold
5. KTENVSGSPHSKAQNQQT  0.000 fold
6. KTINGNDSPHKSVQNHQT  0.000 fold
7. KAINGHDSPHKSGQSPQT  0.095 fold

same assay, conditions: NGS fold-enrichment, NHP heart, relative to AAV9 control

In order of rising “Fold Enrichment relative to AAV9, Heart (NHP)” value:
1. KTENVSGSPHSKAQNQQT  0.000 fold
2. KTEVGHDSPHKSGQNQQT  0.011 fold
3. KTINGNGSPHSKAQNHQA  0.024 fold
4. KTINGNDSPHKSVQNHQT  0.099 fold
5. KTVNGSGSPHSKAPNQHT  0.109 fold
6. KAINGHDSPHKSGQSPQT  0.148 fold
7. KAIIGHESPHKSGQNQQT  0.150 fold

same assay, conditions: NGS fold-enrichment, NHP liver DNA, relative to AAV9 control

In order of falling “Fold Enrichment relative to AAV9, Liver DNA (NHP)” value:
1. KAINGHDSPHKSGQSPQT  0.238 fold
2. KAIIGHESPHKSGQNQQT  0.145 fold
3. KTEVGHDSPHKSGQNQQT  0.138 fold
4. KTENVSGSPHSKAQNQQT  0.112 fold
5. KTVNGSGSPHSKAPNQHT  0.074 fold
6. KTINGNGSPHSKAQNHQA  0.041 fold
7. KTINGNDSPHKSVQNHQT  0.000 fold

same assay, conditions: NGS fold-enrichment, NHP liver RNA, relative to AAV9 control

In order of falling “Fold Enrichment relative to AAV9, Liver RNA (NHP)” value:
1. KTENVSGSPHSKAQNQQT  0.964 fold
2. KAIIGHESPHKSGQNQQT  0.062 fold
3. KTINGNGSPHSKAQNHQA  0.000 fold
4. KTVNGSGSPHSKAPNQHT  0.000 fold
5. KAINGHDSPHKSGQSPQT  0.000 fold
6. KTEVGHDSPHKSGQNQQT  0.000 fold
7. KTINGNDSPHKSVQNHQT  0.000 fold

same assay, conditions: NGS fold-enrichment, NHP muscle, relative to AAV9 control

In order of rising “Fold Enrichment relative to AAV9, Muscle (NHP)” value:
1. KTINGNGSPHSKAQNHQA  0.000 fold
2. KTVNGSGSPHSKAPNQHT  0.000 fold
3. KAINGHDSPHKSGQSPQT  0.000 fold
4. KTEVGHDSPHKSGQNQQT  0.000 fold
5. KAIIGHESPHKSGQNQQT  0.000 fold
6. KTENVSGSPHSKAQNQQT  0.000 fold
7. KTINGNDSPHKSVQNHQT  0.788 fold

same assay, conditions: NGS fold-enrichment, RNA, brain of NHPs, relative to AAV9 control

In order of rising “Fold Enrichment relative to AAV9, Brain (NHP)” value:
1. KTINGSGSPHSKAPGLQT  62.043 fold
2. KTENVSGSPHSKAQNQQT  88.506 fold
3. KTVNGSGSPHSKAPNQHT  117.207 fold

same assay, conditions: NGS fold-enrichment, heart of NHPs, relative to AAV9 control

In order of falling “Fold Enrichment relative to AAV9, Heart (NHP)” value:
1. KTVNGSGSPHSKAPNQHT  0.109 fold
2. KTINGSGSPHSKAPGLQT  0.000 fold
3. KTENVSGSPHSKAQNQQT  0.000 fold

same assay, conditions: NGS fold-enrichment, liver DNA of NHPs, relative to AAV9 control

In order of falling “Fold Enrichment relative to AAV9, Liver DNA (NHP)” value:
1. KTINGSGSPHSKAPGLQT  0.210 fold
2. KTENVSGSPHSKAQNQQT  0.112 fold
3. KTVNGSGSPHSKAPNQHT  0.074 fold

same assay, conditions: NGS fold-enrichment, liver RNA of NHPs, relative to AAV9 control

In order of falling “Fold Enrichment relative to AAV9, Liver RNA (NHP)” value:
1. KTENVSGSPHSKAQNQQT  0.964 fold
2. KTINGSGSPHSKAPGLQT  0.651 fold
3. KTVNGSGSPHSKAPNQHT  0.000 fold

same assay, conditions: NGS fold-enrichment, muscle of NHPs, relative to AAV9 control

In order of rising “Fold Enrichment relative to AAV9, Muscle (NHP)” value:
1. KTVNGSGSPHSKAPNQHT  0.000 fold
2. KTENVSGSPHSKAQNQQT  0.000 fold
3. KTINGSGSPHSKAPGLQT  0.005 fold
